The values that follow come from patent US9604946B2, “Methods for modulating bacterial virulence and related compounds” (priority 2013, dated 2017).

One test relates to S. Typhimurium. The test is described as follows: S. Typhimurium replication in J774 macrophages with and without compound. The format is cell-based. Particulars: 500 and 5 nM compound. The method, then: Compounds CF325, CF326, CF327, CF329, CF330, CF331, CF332, CF333, CF334, CF338, CF339, CF340, CF341, CF342, CF343, CF344, CF345, CF349, CF350, CF351, and CF352 were screened by measuring the inhibition of S. Typhimurium replication in the presence (500 and 5 nM) and absence of the compound with J774 macrophage or using a qRT PCR study comparing the levels of gene expression in the presence of 5 and 500 nM concentrations of the target compound. Compounds CF331, CF338, CF340, CF341 and CF345 were also screened using a fluorescein actin staining test to determine the number of HeLa cells infected by measuring the inhibition of AE lesion formation.

A further test deals with EHEC. The test is described as follows: qRT-PCR of gene expression in EHEC as change from wild-type expression. Type of test: cell-based, enterohemorrhagic E. coli. Particulars: 5 and 500 nM compound. Background: Real-time PCR tracks product formation cycle by cycle.
The target in the next test is QseC (Escherichia coli O157:H7, UniProt Q8X524). Particulars: earlier work, U.S. Pat. No. 8,252,841; Clarke et al., 2006; Rasko et al., 2008; cited from earlier work.
Chain of QseC (Q8X524 whole entry): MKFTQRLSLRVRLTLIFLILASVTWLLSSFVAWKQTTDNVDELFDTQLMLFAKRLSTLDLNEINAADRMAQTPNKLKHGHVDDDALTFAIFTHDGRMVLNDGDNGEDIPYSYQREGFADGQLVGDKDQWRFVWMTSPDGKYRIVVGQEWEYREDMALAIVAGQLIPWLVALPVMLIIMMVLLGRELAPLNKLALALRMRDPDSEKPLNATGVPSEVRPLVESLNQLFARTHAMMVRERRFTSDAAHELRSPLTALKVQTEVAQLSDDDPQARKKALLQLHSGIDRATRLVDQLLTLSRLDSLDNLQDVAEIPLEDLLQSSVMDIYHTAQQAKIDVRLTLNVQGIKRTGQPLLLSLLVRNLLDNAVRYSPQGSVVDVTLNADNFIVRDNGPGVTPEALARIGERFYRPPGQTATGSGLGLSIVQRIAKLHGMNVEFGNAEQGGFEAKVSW
The next test has as its system A. baumannii. The test is described as follows: Biofilm formation by A. baumannii. Particulars: acts through QseC. The format is cell-based, Acinetobacter baumannii.

Consider `O=C(Nc1nccs1)c1c(F)cc(F)cc1F` [CF325], for which the “modulation of S. Typhimurium virulence (intra J774 macrophage replication)” value (from here on “modulation of S. Typhimurium virulence”) in the test on S. Typhimurium was “showed potency in preventing S. Typhimurium virulence”. For the molecule `COc1ccc(C(=O)Nc2nccs2)c(OC)c1` [CF326], in the test with S. Typhimurium, the “modulation of S. Typhimurium virulence” value was “showed potency in preventing S. Typhimurium virulence”. In the test with EHEC, the “activity on virulence of EHEC (gene expression level by qRT-PCR)” value (“activity on virulence of EHEC” for short) is “antagonist activity against the virulence of EHEC”.

On to `CC(=O)Nc1nccs1` [CF327], for which the “modulation of S. Typhimurium virulence” value in the test on S. Typhimurium is on record as “showed little modulation of the virulence of S. Typhimurium”. In the test on EHEC, the “activity on virulence of EHEC” value is “acted as agonist of virulence”. On to `COc1ccc(C(=O)Nc2nc(-c3ccc(C)cc3)cs2)c(OC)c1` [CF329], for which, in the test with S. Typhimurium, the “modulation of S. Typhimurium virulence” value is “showed little modulation of the virulence of S. Typhimurium”. In the test with EHEC, the “activity on virulence of EHEC” value is “antagonist activity against the virulence of EHEC”. Consider `COc1ccc(C(=O)Nc2ncc[nH]2)c(OC)c1` [CF330], for which, in the test with EHEC, the “activity on virulence of EHEC” value was “acted as agonist of virulence”.

Turning to `O=C(Nc1nccs1)C12CC3CC(CC(C3)C1)C2` [CF331], in the test on EHEC, the “activity on virulence of EHEC” value is reported as “antagonist activity against the virulence of EHEC” and the “rank of modulation of bacterial virulence among the EHEC antagonist compounds” value is reported as “greatest modulation of bacterial virulence”. On to `COc1cccc(OC)c1C(=O)Nc1nccs1` [CF332], for which the “modulation of S. Typhimurium virulence” value with S. Typhimurium was “showed little modulation of the virulence of S. Typhimurium”. In the case of `COc1ccc(C(=O)Nc2nc(C)c(C)s2)c(OC)c1` [CF333], in the test with EHEC, the “activity on virulence of EHEC” value was “antagonist activity against the virulence of EHEC”.

As for `O=C(Nc1nccs1)c1c(Cl)cc(Cl)cc1Cl` [CF334], the “activity on virulence of EHEC” value with EHEC is on record as “acted as agonist of virulence”. As to `CC12CC3CC(C)(C1)CC(C(=O)Nc1nccs1)(C3)C2` [CF345], in the test with EHEC, the “activity on virulence of EHEC” value was “antagonist activity against the virulence of EHEC” and the “rank of modulation of bacterial virulence among the EHEC antagonist compounds” value was “greatest modulation of bacterial virulence”. With `CC12CC3CC(C)(C1)CC(C(=O)Nc1ncco1)(C3)C2` [CF349], in the test with EHEC, the “activity on virulence of EHEC” value is “acted as agonist of virulence”. `CCOC(=O)c1csc(NC(=O)C23CC4CC(C)(CC(C)(C4)C2)C3)n1` [CF351]: the “activity on virulence of EHEC” value with EHEC is on record as “acted as agonist of virulence”. On to `CC12CC3CC(C)(C1)CC(C(=O)Nc1nc(C#N)cs1)(C3)C2` [CF352], for which the “activity on virulence of EHEC” value with EHEC is recorded as “antagonist activity against the virulence of EHEC”. The same measure, in the same setting: as for `CC12CC3CC(C)(C1)CC(C(=O)Nc1ncc(F)s1)(C3)C2` [CF354], the entry is “antagonist activity against the virulence of EHEC”.

Take `O=S(=O)(Nc1ccccc1)c1ccc(NC(=S)Nc2ccccc2)cc1` [LED209]: at QseC, the “block of QseC response to the signal” value is on record as “can block the QseC response to the signal”. `Cc1ccc(N(CC2=NCCN2)c2cccc(O)c2)cc1` [phentolamine]: the “inhibition of biofilm formation” value in the test with A. baumannii was “inhibited”. At QseC, the “block of QseC response to the signal” value is “block this response”.
